According to ChEMBL document CHEMBL4406823 (Eur J Med Chem, 2019):

Experiments:
MDA-MB-231 = test: Antiproliferative activity against human MDA-MB-231 cells assessed as inhibition of cell proliferation incubated for 72 hrs by MTT assay; format: functional, cell-based; conditions: MDA-MB-231, 72 h
HL-60 = test: Antiproliferative activity against human HL60 cells assessed as inhibition of cell proliferation incubated for 72 hrs by MTT assay; format: functional, cell-based; conditions: HL-60, 72 h
SEM cells = test: Antiproliferative activity against human SEM cells assessed as inhibition of cell proliferation incubated for 72 hrs by MTT assay; format: functional, cell-based
HeLa = test: cells; conditions: Homo sapiens, 72 h
Description: Antiproliferative activity against human HeLa cells assessed as inhibition of cell proliferation incubated for 72 hrs by MTT assay

HT-29 = test: cells; conditions: Homo sapiens, HT-29, 72 h
Description: Antiproliferative activity against human HT-29 cells assessed as inhibition of cell proliferation incubated for 72 hrs by MTT assay

MCF7 = test: cells; conditions: Homo sapiens, MCF7, 72 h
Description: Antiproliferative activity against human MCF7 cells assessed as inhibition of cell proliferation incubated for 72 hrs by MTT assay

Tubulin = Tubulin (Bos taurus, UniProt Q6B856+Q862L2+Q862F3); test: Inhibition of bovine brain tubulin assembly using GTP as substrate incubated for 20 mins by spectrophotometric method
Tubulin (Bos taurus) [1] = target: T1, Tubulin (Bos taurus) (UniProt Q6B856+Q862L2+Q862F3); test: Displacement of [3H]-colchicine from bovine brain tubulin at 5 uM incubated for 1 hr by relative to control
Tubulin (Bos taurus) [2] = target: T1, Tubulin (Bos taurus); test: Displacement of [3H]-colchicine from bovine brain tubulin at 0.5 uM incubated for 1 hr by relative to control

SMILES	IC50 (MDA-MB-231)	IC50 (HL-60)	IC50 (SEM cells)	IC50 (HeLa)	IC50 (HT-29)	IC50 (MCF7)	IC50 (Tubulin)	inhibition (Tubulin (Bos taurus) [1])	inhibition (Tubulin (Bos taurus) [2])
COc1cc(-c2c[nH]nc2-c2cc(OC)c(OC)c(OC)c2)ccc1C	5280 nM	160 nM	305 nM	287 nM	316 nM	> 10000 nM	–	–	–
COc1cc(-c2n[nH]cc2-c2ccc(OC(F)(F)F)cc2)cc(OC)c1OC	5740 nM	1750 nM	2470 nM	3380 nM	2420 nM	> 10000 nM	–	–	–
COc1cc(-c2n[nH]cc2-c2ccc(C)cc2)cc(OC)c1OC	10.6 nM	11.9 nM	2.6 nM	11.1 nM	28.2 nM	127 nM	370 nM	88%	–
COc1cc(-c2n[nH]cc2-c2cc(C)c(OC)c(C)c2)cc(OC)c1OC	> 10000 nM	> 10000 nM	3340 nM	> 10000 nM	> 10000 nM	> 10000 nM	–	–	–
COc1cc(-c2c[nH]nc2-c2ccc(C)cc2)cc(OC)c1OC	262 nM	31.4 nM	14.7 nM	25.2 nM	44.4 nM	700 nM	570 nM	86%	–
COc1ccc(-c2c[nH]nc2-c2cc(OC)c(OC)c(OC)c2)cc1F	327 nM	5.1 nM	2.7 nM	7.3 nM	15.8 nM	805 nM	420 nM	93%	55%
COc1cc(-c2n[nH]cc2-c2ccc3ccccc3c2)cc(OC)c1OC	28.4 nM	9.4 nM	3.3 nM	6.6 nM	8.1 nM	21.4 nM	410 nM	91%	68%
CCCc1ccc(-c2c[nH]nc2-c2cc(OC)c(OC)c(OC)c2)cc1	1550 nM	553 nM	406 nM	361 nM	541 nM	2790 nM	–	–	–
COc1ccc(/C=C\c2cc(OC)c(OC)c(OC)c2)cc1O [COMBRETASTATIN A4]	4.5 nM	–	5.1 nM	–	–	–	–	–	–
COc1ccc(-c2c[nH]nc2-c2cc(OC)c(OC)c(OC)c2)cc1C	2680 nM	17.7 nM	17.2 nM	32.9 nM	37.3 nM	> 10000 nM	440 nM	81%	–
COc1ccc(-c2c[nH]nc2-c2cc(OC)c(OC)c(OC)c2)cc1	8.6 nM	4.4 nM	1 nM	6 nM	10.5 nM	16.6 nM	370 nM	86%	–
CCSc1ccc(-c2c[nH]nc2-c2cc(OC)c(OC)c(OC)c2)cc1	31.4 nM	29.7 nM	13.9 nM	12.5 nM	5.4 nM	492 nM	480 nM	85%	–
COc1ccc(-c2c[nH]nc2-c2cc(OC)c(OC)c(OC)c2)cc1Cl	21.5 nM	17 nM	2.4 nM	1.4 nM	0.2 nM	1390 nM	520 nM	85%	–
COc1cc(-c2n[nH]cc2-c2ccc(C)c(C)c2)cc(OC)c1OC	2610 nM	51.3 nM	28.5 nM	35.9 nM	68.4 nM	769 nM	610 nM	85%	–
COc1ccc(-c2n[nH]cc2-c2cc(OC)c(OC)c(OC)c2)cc1	0.9 nM	2.1 nM	0.4 nM	1.9 nM	0.8 nM	2.6 nM	340 nM	93%	79%
CCOc1ccc(-c2c[nH]nc2-c2cc(OC)c(OC)c(OC)c2)cc1Cl	6.9 nM	1.5 nM	1.4 nM	1.6 nM	4.2 nM	4.5 nM	390 nM	90%	62%
CCc1ccc(-c2c[nH]nc2-c2cc(OC)c(OC)c(OC)c2)cc1	3270 nM	23.3 nM	18.7 nM	33.5 nM	41.3 nM	> 10000 nM	520 nM	85%	–
COc1cc(-c2n[nH]cc2-c2ccc(C)c(F)c2)cc(OC)c1OC	481 nM	31 nM	23.5 nM	26.2 nM	67.4 nM	1700 nM	480 nM	91%	49%
COc1cc(-c2n[nH]cc2-c2ccc(SC)cc2)cc(OC)c1OC	3650 nM	40.9 nM	30.1 nM	28.7 nM	51.3 nM	> 10000 nM	570 nM	85%	–
COc1cc(-c2n[nH]cc2-c2cc3ccccc3s2)cc(OC)c1OC	2.5 nM	2.3 nM	0.5 nM	1.7 nM	7.4 nM	1.4 nM	300 nM	93%	69%
COc1cc(-c2n[nH]cc2-c2ccc(C(F)(F)F)cc2)cc(OC)c1OC	523 nM	179 nM	187 nM	227 nM	67.4 nM	4380 nM	–	–	–
